Results as given in US4596808A, “Pharmacologically active 3-substituted beta-carbolines useful as tranquilizers” (Schering Aktiengesellschaft, priority 1980, dated 1986).

Columns and labels:
benzodiazepine receptor [1] = assay: In vivo inhibition of 3H-flunitrazepam binding to the benzodiazepine receptor in living brain (ED50); conditions: mice, subcutaneous, 3H-flunitrazepam i.v. 15 min later
benzodiazepine receptor [2] = assay: Displacement of 3H-flunitrazepam from benzodiazepine receptors in vitro (IC50); type: binding; conditions: rat forebrain, 3H-flunitrazepam 1.0 nM, 0° C.
Excerpt: For example, it is known that certain locations in the central nervous system of vertebrates have a high specific affinity for bonding 1,4 and 1,5-benzodiazepines. (See, e.g., R. F. Squires & C. Braestrup, Nature [London] 266 [1977], 734, which is incorporated by reference herein). These locations are called benzodiazepine receptors.
This displacement activity of the compounds of this invention has been determined by measuring IC50 and ED50 values. The IC50 value is the concentration which causes a 50% displacement of the specific binding of ^3 H-flunitrazepam (1.0 nM, 0° C.) in samples with a total volume of 0.55 ml of a suspension of brain membrane, e.g., from rats.
The displacement test is carried out as follows:
0.5 ml of a suspension of untreated rat forebrain in 25 mM KH2 PO4, at a pH of 7.1 (5-10 mg of tissue per sample) were incubated with ^3 H-diazepam (specific activity 14.4 Ci/millimole, 1.9 nM) or ^3 H-flunitrazepam (specific activity 87 Ci/millimole, 1.0 nM) for 40-60 minutes at 0° C. After incubation, the suspension is filtered through a glass frit, the residue is washed twice with a cold buffer solution and the radioactivity is measured by scintillation counting.
The test is then repeated, except prior to addition of the radioactively marked benzodiazepine, a given amount or an excess amount of the compound whose displacement activity is to be ascertained, is added. The IC50 value can then be computed from the test results obtained.

CCOC(=O)CC(=O)c1cc2c(cn1)[nH]c1ccccc12 [COCH2 COOC2 H5, 3-carboethoxy-acetyl-beta-carboline]
In vivo ED50, inhibition of 3H flunitrazepam binding (Affinity for the benzodiazepine receptor) (benzodiazepine receptor [1]): > 250 mg/kg

C(=NNc1ccccc1)c1cc2c(cn1)[nH]c1ccccc12 [CHNNHC6 H5, beta-carboline-3-carboxaldehyde-phenylhydrazone]
In vivo ED50, inhibition of 3H flunitrazepam binding (Affinity for the benzodiazepine receptor) (benzodiazepine receptor [1]): > 250 mg/kg

Cc1nc(-c2cc3c(cn2)[nH]c2ccccc23)n(C)n1
In vitro IC50, inhibition of 3H flunitrazepam binding (Affinity for the benzodiazepine receptor) (benzodiazepine receptor [2]): 179 ng/mL | In vivo ED50, inhibition of 3H flunitrazepam binding (Affinity for the benzodiazepine receptor) (benzodiazepine receptor [1]): > 300 mg/kg

C(=NN1CCOCC1)c1cc2c(cn1)[nH]c1ccccc12 [drawing 28]
In vitro IC50, inhibition of 3H flunitrazepam binding (Affinity for the benzodiazepine receptor) (benzodiazepine receptor [2]): > 100 ng/mL | In vivo ED50, inhibition of 3H flunitrazepam binding (Affinity for the benzodiazepine receptor) (benzodiazepine receptor [1]): > 250 mg/kg

CN(C)S(=O)(=O)c1ccc2[nH]c3cnc(C=NN4CCCC4)cc3c2c1 [drawing 34]
In vitro IC50, inhibition of 3H flunitrazepam binding (Affinity for the benzodiazepine receptor) (benzodiazepine receptor [2]): 8 ng/mL | In vivo ED50, inhibition of 3H flunitrazepam binding (Affinity for the benzodiazepine receptor) (benzodiazepine receptor [1]): 210 mg/kg

ON=Cc1cc2c(cn1)[nH]c1ccccc12 [CHNOH, beta-carboline-3-carboxaldehyde-oxime]
In vitro IC50, inhibition of 3H flunitrazepam binding (Affinity for the benzodiazepine receptor) (benzodiazepine receptor [2]): 8.7 ng/mL | In vivo ED50, inhibition of 3H flunitrazepam binding (Affinity for the benzodiazepine receptor) (benzodiazepine receptor [1]): 19 mg/kg

Cc1noc(-c2cc3c(cn2)[nH]c2ccccc23)n1
In vitro IC50, inhibition of 3H flunitrazepam binding (Affinity for the benzodiazepine receptor) (benzodiazepine receptor [2]): 0.56 ng/mL | In vivo ED50, inhibition of 3H flunitrazepam binding (Affinity for the benzodiazepine receptor) (benzodiazepine receptor [1]): 15 mg/kg

CCCCC(=NO)c1cc2c(cn1)[nH]c1ccccc12
In vitro IC50, inhibition of 3H flunitrazepam binding (Affinity for the benzodiazepine receptor) (benzodiazepine receptor [2]): 468 ng/mL | In vivo ED50, inhibition of 3H flunitrazepam binding (Affinity for the benzodiazepine receptor) (benzodiazepine receptor [1]): > 250 mg/kg

CCCCC(=O)c1cc2c(cn1)[nH]c1ccccc12 [COCH2 CH2 CH2 CH3, 3-pentanoyl-beta-carboline]
In vitro IC50, inhibition of 3H flunitrazepam binding (Affinity for the benzodiazepine receptor) (benzodiazepine receptor [2]): 20.0 ng/mL | In vivo ED50, inhibition of 3H flunitrazepam binding (Affinity for the benzodiazepine receptor) (benzodiazepine receptor [1]): 144 mg/kg

CN(C)S(=O)(=O)c1ccc2[nH]c3cnc(C=O)cc3c2c1 [CHO, drawing 30, 6-dimethylsulfamoyl-beta-carboline-3-carboxaldehyde]
In vitro IC50, inhibition of 3H flunitrazepam binding (Affinity for the benzodiazepine receptor) (benzodiazepine receptor [2]): > 100 ng/mL | In vivo ED50, inhibition of 3H flunitrazepam binding (Affinity for the benzodiazepine receptor) (benzodiazepine receptor [1]): > 300 mg/kg

Cn1cnc(-c2cc3c(cn2)[nH]c2ccccc23)n1
In vitro IC50, inhibition of 3H flunitrazepam binding (Affinity for the benzodiazepine receptor) (benzodiazepine receptor [2]): > 400 ng/mL | In vivo ED50, inhibition of 3H flunitrazepam binding (Affinity for the benzodiazepine receptor) (benzodiazepine receptor [1]): 145 mg/kg

NC(=O)NN=Cc1cc2c(cn1)[nH]c1ccccc12 [CHNNHCONH2, beta-carboline-3-carboxaldehyde-semicarbazone]
In vitro IC50, inhibition of 3H flunitrazepam binding (Affinity for the benzodiazepine receptor) (benzodiazepine receptor [2]): > 100 ng/mL | In vivo ED50, inhibition of 3H flunitrazepam binding (Affinity for the benzodiazepine receptor) (benzodiazepine receptor [1]): > 250 mg/kg

CN(C)S(=O)(=O)c1ccc2[nH]c3cnc(C=NO)cc3c2c1 [CHNOH, drawing 36]
In vitro IC50, inhibition of 3H flunitrazepam binding (Affinity for the benzodiazepine receptor) (benzodiazepine receptor [2]): 1.7 ng/mL | In vivo ED50, inhibition of 3H flunitrazepam binding (Affinity for the benzodiazepine receptor) (benzodiazepine receptor [1]): 300 mg/kg

CC(=NN(C)C)c1cc2c(cn1)[nH]c1ccccc12 [drawing 25]
In vitro IC50, inhibition of 3H flunitrazepam binding (Affinity for the benzodiazepine receptor) (benzodiazepine receptor [2]): > 100 ng/mL | In vivo ED50, inhibition of 3H flunitrazepam binding (Affinity for the benzodiazepine receptor) (benzodiazepine receptor [1]): 119 mg/kg

O=CNC(=O)c1cc2c(cn1)[nH]c1ccccc12 [CONHCHO, beta-carboline-3-(N-formylcarboxamide)]
In vitro IC50, inhibition of 3H flunitrazepam binding (Affinity for the benzodiazepine receptor) (benzodiazepine receptor [2]): 34 ng/mL | In vivo ED50, inhibition of 3H flunitrazepam binding (Affinity for the benzodiazepine receptor) (benzodiazepine receptor [1]): 197 mg/kg

CNC(=O)CC(=O)c1cc2c(cn1)[nH]c1ccccc12 [COCH2 CONHCH3]
In vitro IC50, inhibition of 3H flunitrazepam binding (Affinity for the benzodiazepine receptor) (benzodiazepine receptor [2]): > 100 ng/mL | In vivo ED50, inhibition of 3H flunitrazepam binding (Affinity for the benzodiazepine receptor) (benzodiazepine receptor [1]): > 250 mg/kg

CN(C)C=NC(=O)c1cc2c(cn1)[nH]c1ccccc12
In vitro IC50, inhibition of 3H flunitrazepam binding (Affinity for the benzodiazepine receptor) (benzodiazepine receptor [2]): 90 ng/mL | In vivo ED50, inhibition of 3H flunitrazepam binding (Affinity for the benzodiazepine receptor) (benzodiazepine receptor [1]): > 250 mg/kg

CN(C)N=Cc1cc2c(cn1)[nH]c1ccccc12 [drawing 13]
In vitro IC50, inhibition of 3H flunitrazepam binding (Affinity for the benzodiazepine receptor) (benzodiazepine receptor [2]): 41.7 ng/mL | In vivo ED50, inhibition of 3H flunitrazepam binding (Affinity for the benzodiazepine receptor) (benzodiazepine receptor [1]): 54 mg/kg

O=C1CC(c2cc3c(cn2)[nH]c2ccccc23)=NN1
In vitro IC50, inhibition of 3H flunitrazepam binding (Affinity for the benzodiazepine receptor) (benzodiazepine receptor [2]): > 100 ng/mL | In vivo ED50, inhibition of 3H flunitrazepam binding (Affinity for the benzodiazepine receptor) (benzodiazepine receptor [1]): > 250 mg/kg

C(=Nn1cnnc1)c1cc2c(cn1)[nH]c1ccccc12
In vitro IC50, inhibition of 3H flunitrazepam binding (Affinity for the benzodiazepine receptor) (benzodiazepine receptor [2]): > 100 ng/mL | In vivo ED50, inhibition of 3H flunitrazepam binding (Affinity for the benzodiazepine receptor) (benzodiazepine receptor [1]): > 250 mg/kg

C(=NN1CCCC1)c1cc2c(cn1)[nH]c1ccccc12 [drawing 31]
In vitro IC50, inhibition of 3H flunitrazepam binding (Affinity for the benzodiazepine receptor) (benzodiazepine receptor [2]): > 100 ng/mL | In vivo ED50, inhibition of 3H flunitrazepam binding (Affinity for the benzodiazepine receptor) (benzodiazepine receptor [1]): 49 mg/kg

CCN(CC)N=Cc1cc2c(cn1)[nH]c1ccccc12 [drawing 23]
In vitro IC50, inhibition of 3H flunitrazepam binding (Affinity for the benzodiazepine receptor) (benzodiazepine receptor [2]): > 100 ng/mL | In vivo ED50, inhibition of 3H flunitrazepam binding (Affinity for the benzodiazepine receptor) (benzodiazepine receptor [1]): 72 mg/kg

CNN=Cc1cc2c(cn1)[nH]c1ccccc12 [CHNNHCH3, beta-carboline-3-carboxaldehyde-methylhydrazone]
In vitro IC50, inhibition of 3H flunitrazepam binding (Affinity for the benzodiazepine receptor) (benzodiazepine receptor [2]): 149 ng/mL | In vivo ED50, inhibition of 3H flunitrazepam binding (Affinity for the benzodiazepine receptor) (benzodiazepine receptor [1]): 92 mg/kg

CC(=O)ON=Cc1cc2c(cn1)[nH]c1ccccc12 [CHNOCOCH3]
In vitro IC50, inhibition of 3H flunitrazepam binding (Affinity for the benzodiazepine receptor) (benzodiazepine receptor [2]): 169 ng/mL | In vivo ED50, inhibition of 3H flunitrazepam binding (Affinity for the benzodiazepine receptor) (benzodiazepine receptor [1]): > 250 mg/kg

C(=NN1CCCCC1)c1cc2c(cn1)[nH]c1ccccc12 [drawing 27]
In vitro IC50, inhibition of 3H flunitrazepam binding (Affinity for the benzodiazepine receptor) (benzodiazepine receptor [2]): > 100 ng/mL | In vivo ED50, inhibition of 3H flunitrazepam binding (Affinity for the benzodiazepine receptor) (benzodiazepine receptor [1]): > 250 mg/kg

Cc1n[nH]c(-c2cc3c(cn2)[nH]c2ccccc23)n1
In vitro IC50, inhibition of 3H flunitrazepam binding (Affinity for the benzodiazepine receptor) (benzodiazepine receptor [2]): 96 ng/mL | In vivo ED50, inhibition of 3H flunitrazepam binding (Affinity for the benzodiazepine receptor) (benzodiazepine receptor [1]): 139 mg/kg

O=C(c1ccccc1)c1cc2c(cn1)[nH]c1ccccc12 [COC6 H5, 3-benzoyl-beta-carboline]
In vitro IC50, inhibition of 3H flunitrazepam binding (Affinity for the benzodiazepine receptor) (benzodiazepine receptor [2]): 4.27 ng/mL | In vivo ED50, inhibition of 3H flunitrazepam binding (Affinity for the benzodiazepine receptor) (benzodiazepine receptor [1]): 223 mg/kg

O=C1CC(c2cc3c(cn2)[nH]c2ccccc23)=NO1
In vitro IC50, inhibition of 3H flunitrazepam binding (Affinity for the benzodiazepine receptor) (benzodiazepine receptor [2]): 156 ng/mL | In vivo ED50, inhibition of 3H flunitrazepam binding (Affinity for the benzodiazepine receptor) (benzodiazepine receptor [1]): 100 mg/kg

O=C(N=CNO)c1cc2c(cn1)[nH]c1ccccc12 [CONCHNHOH, N-[(hydroxyamino)methylene]-beta-carboline-carboxamide]
In vivo ED50, inhibition of 3H flunitrazepam binding (Affinity for the benzodiazepine receptor) (benzodiazepine receptor [1]): 93 mg/kg
